Assay results: patent publication US4738965A, “2-oxo-4-(2'-difl uoromethylthiophenyl)-5-methoxycarbonyl-6-methyl-1,2,3,4-tetrahydropyrimi dine” (Institut Organischskogo Sinteza Akademii Nauk SSR, priority 1987, dated 1988)
Like-named read-outs stand apart in the source and are kept apart here.

Legend:
[1] = test system: Coronary Blood Flow (descending branch of the left coronary artery); experiment: Coronary dilating activity: coronary blood flow in narcotized dogs with open thoracic cavity; assay type: in vivo; settings: for ED (50% increase): Canis lupus familiaris, read-out: Dose increasing coronary blood flow by 50%
Description: The experiments have been conducted on narcotized dogs with the open thoracic cavity. The blood flow was registered in the descending branch of the left coronary artery.
The blood flow was determined before and after the injection of the proposed compounds. The proposed compound was introduced in a single dose, intravenously, followed by calculating the increase in the coronary blood flow in percent.

[2] = Acute toxicity in mice; settings: mouse, in vivo, ip
[3] = test system: Arterial Pressure; experiment: Hypotensive activity in spontaneously-hypertensive rats; assay type: in vivo, spontaneously-hypertensive rats (SHR) of Okamoto-Aoki line; settings: SHR, single 10 mg/kg dose into the stomach; for Hypotensive activity: Table 2
Description: The experiments were conducted on spontaneously-hypertensive rats (SHR) of Okamoto-Aoki line.

[4] = test system: coronary dilating activity; settings: clinical practice, in words; cited from earlier work
[5] = large doses, in words; cited from earlier work
[6] = test system: mongrel white mice; experiment: Acute toxicity in mice; settings: ratio versus nifedipin and papaverine
[7] = Chemical stability; assay type: physicochemical
[8] = Solubility; assay type: physicochemical
[9] = in vivo; settings: mouse, ip
[10] = test system: systemic arterial pressure and cardiac output; experiment: Systemic arterial pressure and cardiac output in narcotized dogs; assay type: in vivo; settings: 0.01-0.1 mg/kg, intravenous
[11] = 0.1 mg/kg, single dose, intravenous, narcotized dogs
[12] = 0.5 mg/kg, single dose, intravenous, narcotized dogs
[13] = 0.01 mg/kg, single dose, intravenous, narcotized dogs

In the case of `COc1ccc(Cc2nccc3cc(OC)c(OC)cc23)cc1OC` [Papaverine, reference compound], the Duration of effect [1, 11] is reported as 5 min, the “Increase of coronary blood flow” value [1, 11] is reported as 20% and the Duration of effect [1, 12] is reported as 7 min. The “Increase of coronary blood flow” value [1, 12] was 30%, the ED (50% increase) ([1]; iv) was 0.9 mg/kg and the LD50 at 336 h [2] was 91 mg/kg. The “Duration of hypotensive effect” value [3] was 3 h, the “Effect on arterial pressure (in words)” value [3] was “insignificant effect on arterial pressure” and the “Reduction of (systolic) arterial pressure” value [3] was 5%. For the same compound, the Hypotensive activity [3] was 5, the Coronary dilating activity [4] was “low coronary dilating activity” and the Toxicity [5] was “rather high”.

For `COC(=O)C1=C(C)NC(=O)NC1c1ccccc1SC(F)F` (stereo not shown) [Proposed compound, 2-oxo-4-(2'-difluoromethylthiophenyl)-5-methoxycarbonyl-6-methyl-1,2,3,4-tetrahydropyrimidine], the “Increase of coronary blood flow” value ([1]; 0.001 mg/kg, single dose, intravenous, narcotized dogs) was 19%, the Duration of effect [1, 13] was 35 min and the “Increase of coronary blood flow” value [1, 13] was 79%. The Duration of effect [1, 11] was 60 min, the “Increase of coronary blood flow” value [1, 11] was 107% and the ED (50% increase) ([1]; single dose, intravenous, narcotized dogs) was 0.006 mg/kg. For the same compound, the “Duration of effect compared with nifedipin” value ([1]; ratio versus nifedipin) was 1.7 times, the “Strong and prolonged vasodilating effect with relation to coronary vessels, compared with nifedipin” value ([1]; ratio versus nifedipin (summary)) was 1.7 times and the “Coronary dilating activity compared with papaverine, by doses” value ([1]; ratio versus papaverine) was 150 times. The “Duration of effect compared with papaverine” value ([1]; ratio versus papaverine) was “over 10 times”, the “Strong and prolonged vasodilating effect with relation to coronary vessels, compared with papaverine” value ([1]; ratio versus papaverine (summary)) was “about 10 times” and the “Coronary dilating effect compared with nifedipin” value ([1]; versus nifedipin, in words) was “approximately equal in activity to nifedipin”. For the same compound, the “Toxicity, times lower than that of nifedipin and papaverine” value [6] was 10-20 times, the Chemical stability [7] was “chemically stable” and the “Solubility in organic solvents” value ([8]; ethyl alcohol, acetone, chloroform and other organic solvents) was “comparatively easily-soluble in ethyl alcohol, acetone, chloroform and other organic solvents”. The Solubility in water ([8]; water) was “insoluble in water”, the LD50 at 336 h [9] was over 2000 mg/kg and the “Duration of hypotensive effect” value [3] was 6 h. The “Effect on arterial pressure (in words)” value [3] was “no substantial effect on arterial pressure”, the “Reduction of (systolic) arterial pressure” value [3] was 8% and the Hypotensive activity [3] was 8. For the same compound, the “Change of systemic arterial pressure and cardiac output” value [10] was “did not change the systemic arterial pressure and the cardiac output”.
